Counter-ions that a name gives are not always drawn. Like-named read-outs stand apart in the source and are kept apart here.
What was measured:
Type in all cases: biochemical
recombinant human VAP-1 = target: T1, recombinant human VAP-1 (Homo sapiens, UniProt Q16853); assay: Activity evaluation on recombinant human VAP-1 (Amplex Red/HRP-coupled hydrogen peroxide assay, benzylamine substrate); details: read-out: Inhibitory Activity (IC50, nM) human VAP-1
T1 construct: purchased R&D systems
T1 sequence (Q16853 1-763): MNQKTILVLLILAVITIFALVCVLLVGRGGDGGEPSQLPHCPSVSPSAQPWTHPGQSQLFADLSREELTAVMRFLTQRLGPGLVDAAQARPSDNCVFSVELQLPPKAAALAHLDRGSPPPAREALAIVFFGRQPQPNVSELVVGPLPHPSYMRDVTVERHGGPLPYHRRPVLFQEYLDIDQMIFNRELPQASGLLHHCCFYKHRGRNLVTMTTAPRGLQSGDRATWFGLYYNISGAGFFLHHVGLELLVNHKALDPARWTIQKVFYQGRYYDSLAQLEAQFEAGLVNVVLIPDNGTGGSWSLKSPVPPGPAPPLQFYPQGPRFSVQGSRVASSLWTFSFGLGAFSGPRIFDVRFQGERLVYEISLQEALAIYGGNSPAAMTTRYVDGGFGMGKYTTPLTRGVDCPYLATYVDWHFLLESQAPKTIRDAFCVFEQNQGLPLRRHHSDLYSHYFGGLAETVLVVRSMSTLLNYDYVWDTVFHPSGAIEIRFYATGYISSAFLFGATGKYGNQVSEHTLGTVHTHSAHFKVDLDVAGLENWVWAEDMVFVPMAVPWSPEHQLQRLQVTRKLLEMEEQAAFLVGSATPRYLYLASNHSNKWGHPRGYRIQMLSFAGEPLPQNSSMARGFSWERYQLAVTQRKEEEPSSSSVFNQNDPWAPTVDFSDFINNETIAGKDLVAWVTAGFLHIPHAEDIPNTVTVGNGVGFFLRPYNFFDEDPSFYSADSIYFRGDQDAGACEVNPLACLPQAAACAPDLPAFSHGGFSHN
Procedure, shortened: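 Hydrogen peroxide from benzylamine (1 mM) oxidation by human recombinant VAP-1 detected via HRP-coupled Amplex Red (200 uM) fluorescence, kinetic over 1–2 h. Enzyme and compound preincubated 30 min at 37 °C, pH 7.4 phosphate; 8-point dose response, signal-rate decrease versus DMSO control fitted to four-parameter logistic for IC50.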

[1] = target: T2, recombinant human MAO-A (monoamine oxidase-A) (Homo sapiens, UniProt P21397); assay: Activity evaluation on recombinant human MAO-A (Amplex Red/HRP-coupled assay, 0.5 mM tyramine substrate); details: read-out: Inhibitory Activity (IC50, nM) MAO-A
T2 construct: purchased Sigma-Aldrich
T2 sequence (P21397 1-527): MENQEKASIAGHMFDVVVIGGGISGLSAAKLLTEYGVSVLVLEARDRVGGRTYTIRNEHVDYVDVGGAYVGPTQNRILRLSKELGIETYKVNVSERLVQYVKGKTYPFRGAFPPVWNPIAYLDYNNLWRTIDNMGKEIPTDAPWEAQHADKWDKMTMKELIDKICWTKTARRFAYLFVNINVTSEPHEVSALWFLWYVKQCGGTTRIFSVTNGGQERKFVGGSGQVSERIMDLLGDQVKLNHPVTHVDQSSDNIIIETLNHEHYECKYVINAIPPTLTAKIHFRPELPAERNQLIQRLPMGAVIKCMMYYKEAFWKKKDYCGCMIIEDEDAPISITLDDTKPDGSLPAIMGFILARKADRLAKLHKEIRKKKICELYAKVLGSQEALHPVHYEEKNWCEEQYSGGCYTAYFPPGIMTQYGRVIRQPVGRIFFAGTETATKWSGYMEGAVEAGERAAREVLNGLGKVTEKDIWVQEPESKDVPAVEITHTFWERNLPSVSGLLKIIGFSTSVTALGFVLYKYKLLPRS
Procedure, shortened: (§1)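 8-pt 1:3 dilution series, final DMSO <1%; 30 min 37 °C preincubation w/ enzyme, 50 mM Na phosphate pH 7.4; + 200 uM Amplex Red, 1 U/mL HRP, substrate (MAO-A tyramine 0.5 mM; MAO-B benzylamine 1 mM; DAO putrescine 1 mM); fluor. rate 544/590 nm, 1-2 h; 4-param IC50.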

[2] = target: T3, recombinant human DAO (diamine oxidase) (Homo sapiens, UniProt P19801); assay: Activity evaluation on recombinant human DAO (Amplex Red/HRP-coupled assay, 1 mM putrescine substrate); details: read-out: Inhibitory Activity (IC50, nM) DAO
T3 construct: purchased R&D systems
T3 sequence (P19801 20-751): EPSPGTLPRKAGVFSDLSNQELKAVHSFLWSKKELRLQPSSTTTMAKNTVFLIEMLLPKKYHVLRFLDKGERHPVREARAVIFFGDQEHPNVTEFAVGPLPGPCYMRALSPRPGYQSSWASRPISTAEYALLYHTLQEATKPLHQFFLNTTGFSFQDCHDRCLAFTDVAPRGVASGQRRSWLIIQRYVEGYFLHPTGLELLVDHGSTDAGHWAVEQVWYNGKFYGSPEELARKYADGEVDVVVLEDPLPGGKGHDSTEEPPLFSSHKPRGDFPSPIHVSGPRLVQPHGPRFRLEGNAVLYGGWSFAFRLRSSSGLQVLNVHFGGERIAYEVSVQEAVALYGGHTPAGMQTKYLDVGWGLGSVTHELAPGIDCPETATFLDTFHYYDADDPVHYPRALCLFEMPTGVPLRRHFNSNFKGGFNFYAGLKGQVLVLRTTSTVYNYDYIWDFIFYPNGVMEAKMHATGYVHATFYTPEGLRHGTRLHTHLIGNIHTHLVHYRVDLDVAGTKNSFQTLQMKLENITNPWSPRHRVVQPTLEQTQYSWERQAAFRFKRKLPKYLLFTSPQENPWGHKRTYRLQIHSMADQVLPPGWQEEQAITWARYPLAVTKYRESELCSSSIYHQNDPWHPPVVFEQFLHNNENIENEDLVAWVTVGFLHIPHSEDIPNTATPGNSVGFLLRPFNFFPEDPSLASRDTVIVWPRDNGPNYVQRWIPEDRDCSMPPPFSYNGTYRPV
Procedure, shortened: as §1

[3] = target: T4, recombinant human MAO-B (monoamine oxidase-B) (Homo sapiens, UniProt P27338); assay: Activity evaluation on recombinant human MAO-B (Amplex Red/HRP-coupled assay, 1 mM benzylamine substrate); details: read-out: Inhibitory Activity (IC50, nM) MAO-B
T4 construct: purchased Sigma-Aldrich
T4 sequence (P27338 1-520): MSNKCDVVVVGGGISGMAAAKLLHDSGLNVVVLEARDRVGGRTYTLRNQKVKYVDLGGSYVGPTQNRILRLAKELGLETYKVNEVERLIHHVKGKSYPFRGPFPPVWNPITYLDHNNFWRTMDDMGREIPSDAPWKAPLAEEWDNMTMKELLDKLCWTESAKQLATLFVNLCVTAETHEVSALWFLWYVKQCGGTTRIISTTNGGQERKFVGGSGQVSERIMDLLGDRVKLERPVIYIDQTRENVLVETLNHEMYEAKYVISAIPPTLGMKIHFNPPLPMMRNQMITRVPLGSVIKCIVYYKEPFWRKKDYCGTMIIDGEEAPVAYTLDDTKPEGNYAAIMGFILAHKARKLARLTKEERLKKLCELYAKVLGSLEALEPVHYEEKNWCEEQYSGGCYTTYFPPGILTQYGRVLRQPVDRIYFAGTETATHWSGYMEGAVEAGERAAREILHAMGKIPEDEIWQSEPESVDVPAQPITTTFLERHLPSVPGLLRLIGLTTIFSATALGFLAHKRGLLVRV
Procedure, shortened: as §1

[4] = recombinant human VAP-1, benzylamine substrate
[5] = recombinant human VAP-1, 30 min preincubation at 37° C., 1 mM benzylamine

SMILES: Cc1c(-c2ccc(N(C)C)nc2)cccc1-n1cnn(CC(CN)=C(F)F)c1=O [Example 256, 2-[2-(aminomethyl)-3,3-difluoro-allyl]-4-[3-[6-(dimethylamino)-3-pyridyl]-2-methyl-phenyl]-1,2,4-triazol-3-one Trifluoroacetate]
- IC50 (recombinant human VAP-1; [4]): 2.5 nM
- IC50 ([1]; 0.5 mM tyramine substrate): > 100000 nM
- IC50 ([2]; 1 mM putrescine substrate): > 100000 nM
- IC50 ([3]; 1 mM benzylamine substrate): > 100000 nM

SMILES: Cc1cc(-c2ccc(N3CCCC3=O)cc2)cnc1-n1cnn(CC(CN)=C(F)F)c1=O [Example 230, 2-[2-(aminomethyl)-3,3-difluoro-allyl]-4-[3-methyl-5-[4-(2-oxopyrrolidin-1-yl)phenyl]-2-pyridyl]-1,2,4-triazol-3-one Trifluoroacetate]
- IC50 (recombinant human VAP-1; [4]): 0.7 nM
- IC50 ([1]; 0.5 mM tyramine substrate): > 100000 nM
- IC50 ([2]; 1 mM putrescine substrate): 24000 nM
- IC50 ([3]; 1 mM benzylamine substrate): 77000 nM

SMILES: Cc1cc(-c2cccc(-c3nc[nH]n3)c2)cnc1-n1cnn(CC(CN)=C(F)F)c1=O [Example 239, 2-[2-(aminomethyl)-3,3-difluoro-allyl]-4-[3-methyl-5-[3-(1H-1,2,4-triazol-3-yl)phenyl]-2-pyridyl]-1,2,4-triazol-3-one trifluoroacetate]
- IC50 (recombinant human VAP-1; [4]): 2.7 nM
- IC50 ([1]; 0.5 mM tyramine substrate): > 100000 nM
- IC50 ([2]; 1 mM putrescine substrate): 11000 nM
- IC50 ([3]; 1 mM benzylamine substrate): 14000 nM

SMILES: Cc1cc(-c2ccc(S(C)(=O)=O)cc2)cnc1-n1cnn(CC(CN)=C(F)F)c1=O [Example 68, 2-[2-(aminomethyl)-3,3-difluoro-allyl]-4-[3-methyl-5-(4-methylsulfonylphenyl)-2-pyridyl]-1,2,4-triazol-3-one Trifluoroacetate]
- IC50 (recombinant human VAP-1; [5]): 0.5 nM
- IC50 ([1]; 0.5 mM tyramine): > 100000 nM
- IC50 ([2]; 1 mM putrescine): 2100 nM
- IC50 ([3]; 1 mM benzylamine): 55000 nM

SMILES: NCC(Cn1ncn(Cc2ccc(-c3ccc4c(c3)NC(=O)OC4)s2)c1=O)=C(F)F [Example 142, 7-[5-[[1-[2-(aminomethyl)-3,3-difluoro-allyl]-5-oxo-1,2,4-triazol-4-yl]methyl]-2-thienyl]-1,4-dihydro-3,1-benzoxazin-2-one Trifluoroacetate]
- IC50 (recombinant human VAP-1; [5]): 0.2 nM
- IC50 ([1]; 0.5 mM tyramine): > 100000 nM
- IC50 ([2]; 1 mM putrescine): 16000 nM
- IC50 ([3]; 1 mM benzylamine): 32000 nM

SMILES: Cc1cc(Br)ncc1-n1cnn(CC(CN)=C(F)F)c1=O [Example 12, 2-[2-(aminomethyl)-3,3-difluoro-allyl]-4-(6-bromo-4-methyl-3-pyridyl)-1,2,4-triazol-3-one Trifluoroacetate]
- IC50 (recombinant human VAP-1; [5]): 43 nM
- IC50 ([1]; 0.5 mM tyramine): > 100000 nM
- IC50 ([2]; 1 mM putrescine): 55000 nM
- IC50 ([3]; 1 mM benzylamine): > 10000 nM

SMILES: NCC(Cn1ncn(Cc2ccc(C#Cc3ccc4c(n3)OCCN4)s2)c1=O)=C(F)F [Example 168, 2-[2-(aminomethyl)-3,3-difluoro-allyl]-4-[[5-[2-(2,3-dihydro-1H-pyrido[2,3-b][1,4]oxazin-6-yl)ethynyl]-2-thienyl]methyl]-1,2,4-triazol-3-one Ditrifluoroacetate]
- IC50 (recombinant human VAP-1; [5]): 1 nM
- IC50 ([1]; 0.5 mM tyramine): > 10000 nM
- IC50 ([2]; 1 mM putrescine): > 100000 nM
- IC50 ([3]; 1 mM benzylamine): 45000 nM

SMILES: Cc1cc(-c2cnn(C(F)F)c2)cnc1-n1cnn(CC(CN)=C(F)F)c1=O [Example 251, 2-[2-(aminomethyl)-3,3-difluoro-allyl]-4-[5-[1-(difluoromethyl)pyrazol-4-yl]-3-methyl-2-pyridyl]-1,2,4-triazol-3-one Trifluoroacetate]
- IC50 (recombinant human VAP-1; [4]): 1.5 nM
- IC50 ([1]; 0.5 mM tyramine substrate): > 100000 nM
- IC50 ([2]; 1 mM putrescine substrate): 19000 nM
- IC50 ([3]; 1 mM benzylamine substrate): 18000 nM

SMILES: NCC(Cn1ncn(Cc2cccc(-c3ccc4c(c3)OCO4)c2)c1=O)=C(F)F [Example 274, 2-[2-(aminomethyl)-3,3-difluoro-allyl]-4-[[3-(1,3-benzodioxol-5-yl)phenyl]methyl]-1,2,4-triazol-3-one Trifluoroacetate]
- IC50 (recombinant human VAP-1; [4]): 3.1 nM
- IC50 ([1]; 0.5 mM tyramine substrate): > 100000 nM
- IC50 ([2]; 1 mM putrescine substrate): 54100 nM
- IC50 ([3]; 1 mM benzylamine substrate): 125 nM

SMILES: CCn1cc(-c2cccc(-c3ccc(Cn4cnn(CC(CN)=C(F)F)c4=O)s3)c2)cn1 [Example 287, 2-[2-(aminomethyl)-3,3-difluoro-allyl]-4-[[5-[3-(1-ethylpyrazol-4-yl)phenyl]-2-thienyl]methyl]-1,2,4-triazol-3-one Trifluoroacetate]
- IC50 (recombinant human VAP-1; [4]): 0.7 nM
- IC50 ([1]; 0.5 mM tyramine substrate): > 100000 nM
- IC50 ([2]; 1 mM putrescine substrate): 13900 nM
- IC50 ([3]; 1 mM benzylamine substrate): 12100 nM

SMILES: NCC(Cn1ncn(-c2cccc(-c3ccc4c(c3)NC(=O)OC4)n2)c1=O)=C(F)F [Example 219, 7-[6-[1-[2-(aminomethyl)-3,3-difluoro-allyl]-5-oxo-1,2,4-triazol-4-yl]-2-pyridyl]-1,4-dihydro-3,1-benzoxazin-2-one Trifluoroacetate]
- IC50 (recombinant human VAP-1; [4]): 0.2 nM
- IC50 ([1]; 0.5 mM tyramine substrate): > 100000 nM
- IC50 ([2]; 1 mM putrescine substrate): 47 nM
- IC50 ([3]; 1 mM benzylamine substrate): 68500 nM

SMILES: CN1C(=O)CCc2cc(-c3ccccc3Cn3cnn(CC(CN)=C(F)F)c3=O)ccc21 [Example 284, 6-[2-[[1-[2-(aminomethyl)-3,3-difluoro-allyl]-5-oxo-1,2,4-triazol-4-yl]methyl]phenyl]-1-methyl-3,4-dihydroquinolin-2-one trifluoroacetate]
- IC50 (recombinant human VAP-1; [4]): 148 nM
- IC50 ([1]; 0.5 mM tyramine substrate): > 100000 nM
- IC50 ([2]; 1 mM putrescine substrate): 66400 nM
- IC50 ([3]; 1 mM benzylamine substrate): > 100000 nM

Reference: patent US11168073B2, “3,3-difluoroallylamines or salts thereof and pharmaceutical compositions comprising the same” (YUHAN CORPORATION, priority 2018, dated 2021)
